Results taken from patent US20110306554A1, “PEPTIDE CAPABLE OF BINDING TO IMMUNOGLOBULIN” (priority 2009, published 2011).
Non-standard residues stand in square brackets, D forms with d. Residues, ends and D or L forms follow the SMILES beside them. No end group written: not given here.

Assays:
[1] = test system: Monoclonal antibody cocktail-induced arthritis mice; test: Arthritis suppressing effects on arthritis-induced mice, Part 4; assay type: in vivo; details: intraperitoneal 100 mg/kg once a day from day 4; methotrexate 0.1 mg/kg
Method: Monoclonal antibody cocktail-induced arthritis mice were used to examine arthritis suppressing effects of peptides which are indicated as R13 in the section (3) in Example 2 and as R19 and R21 in the section (4) in Example 2. Arthritis was caused by intravenous administration of 2 mg/mouse of an arthritis-inducing monoclonal antibody cocktail and three days later, intraperitoneal administration of 50 μg/mouse of LPS. The peptides […] days from four days after the administration of the arthritis-inducing monoclonal antibody cocktail, and arthritis suppressing effect was examined in terms of clinical score and hind-limb volume determination.
The required amount was calculated for each peptide, based on the animal weight. […]
Measurement of body weight of animals was made on days 0, 3, 6, 9, 12, and 14 during the study period, with day 0 being the day of administration of the arthritis-inducing monoclonal antibody cocktail. Observation of general condition was made on a daily basis. […]
Results of examinations were expressed by mean value±standard error and analyzed using EXSAS (Version 7.1.6, Arm Systex Co., Ltd.). […] Quantitative data, such as body weights and leg volumes, were subjected to Bartlett's test, followed by Dunnett's multiple comparison test when the variance was uniform or Steel's multiple comparison test when the variance was not uniform.

[2] = test system: type III allergic (Arthus) reaction-induced rats; test: Immune-complex disease suppression in type III allergic (Arthus) reaction-induced rats, Part 2; assay type: in vivo
Method: Using forty-five 7-week-old male Slc:Wistar rats, examinations were made on peptides R13 and R19, in two series of examinations, each using a different method of administration (intraperitoneal administration and tail vein administration). Acclimation was carried out by giving normal solid chow CRF-1 for a period of 6 or 8 days. The back of the animals was shaved on the day prior to administration, and a mixed solution of OVA and Evans blue dye was administered into the tail vein on the day of administration. Each peptide solution was administered intraperitoneally or into the tail vein 30 minutes or 50 minutes after the administration of the mixed solution of OVA and Evans blue dye, respectively. For intracutaneous administration of an anti-OVA solution, […] was intracutaneously administered in the back of animals at a dose of 0.1 ml/site 30 minutes or 10 minutes after the administration of the tested substance in the case of intraperitoneal or intravenous administration, respectively, so as to generate a local Arthus reaction. After the reaction was allowed to be generated for 4 hours, the animals were euthanized, the blood was removed thoroughly, and then the dorsal skin was exfoliated. The Arthus reaction sites on the exfoliated skin were punched out, and the Evans blue dye was extracted from the punched skin overnight. The amount of dye leakage was quantified by measuring absorbance for the Evans blue dye with a spectrophotometer and using a calibration curve.
A suspension was prepared by placing a predetermined amount of hydrocortisone into a mortar, grinding it with pestle, and then adding physiological saline to make the final concentration of 10 mg/ml.
A predetermined amount of each peptide (peptides R13 and R19) was dissolved in physiological saline to make a 20 mg/ml solution. A 2 mg/ml solution was prepared by diluting the 20 mg/ml solution 10-fold with physiological saline. A 5 mg/ml solution was prepared by dissolving each peptide in a predetermined amount in physiological saline to make a prepared solution.
A mixed solution of OVA and Evans blue dye was administered into the tail vein at a dose of 2 ml/kg. Each peptide solution was administered intraperitoneally or into the tail vein 30 minutes or 50 minutes after the administration of the mixed solution of OVA and Evans blue dye, respectively. […]
Several cuttings were made in the skin strips that were punched out with a punch. […] The amount of dye leakage was calculated from a calibration curve of known amounts of the dye.
The mean value (mean)±standard deviation (SD) for each group was calculated with body-weight measurements and amounts of dye leakage. […]

[3] = test system: rat collagen-arthritis model; test: Arthritis suppressing effects on rat collagen-arthritis model; assay type: in vivo, rats
Method: A rat collagen-arthritis model was used to examine arthritis suppressing effects of a peptide, referred to as peptide R13.
Female Lewis rats were primed with 500 μg of type II bovine-derived collagen and boosted with 100 μg of the same collagen at 7 and 14 days post priming, to induce collagen arthritis. Peptide R13, a scramble peptide (dYdPdYGdFdL), or methotrexate was administered once a day for a period of 25 consecutive days from 12 days after arthritis was fully developed, and arthritis suppressing effect was examined in terms of clinical score. Methotrexate was administered at a dose of 0.15 mg/kg as a control drug.
The required amount was calculated for each peptide, based on the animal weight. Physiological saline was gradually added to prepare suspensions, to make concentrations of 100 and 10 mg/ml.
The clinical score of each limb of the extremities in all cases was observed every third day from day 12, on which arthritis was developed, up to day 36, with day 0 being the day of priming with type II bovine-derived collagen. Observations were according to the following criteria, with the total score for the extremities being set to a maximum of 12. […]

[4] = test system: binding between human C1q protein and human immunoglobulin (IgG); test: Inhibition of binding between C1q and immunoglobulin (C1q spotted on nitrocellulose membrane, ALP-labeled IgG); details: peptide concentration 500 μg/ml, 400 ng human C1q per spot
Excerpt: Peptides were synthesized by GL Biochem (Shanghai), which have the following amino acid sequences: the amino acid sequence depicted in SEQ ID NO: 2 (peptide R2); a shorter amino acid sequence than this peptide, PGLYYF (SEQ ID NO: 1) (peptide R1); and amino acid sequences including the amino acid sequence depicted in SEQ ID NO: 2, SGKFTCKVPGLYYFT (SEQ ID NO: 3) (peptide R3), FTCKVPGLYYFTYHA (SEQ ID NO: 4) (peptide R4), STGKFTCKVPGLYYF (SEQ ID NO: 5) (peptide R5), and CKVPGLYYFVYHASH (SEQ ID NO: 7) (peptide R6). Each peptide was dissolved in DMSO to make a concentration of 10 mg/ml and stored.
Human C1q protein (Carbiochem) was dissolved in 10 mM HEPES, 300 mM NaCl, 40% glycerol (pH 7.2) to prepare a 200 μg/ml solution of human C1q protein. The solution of human C1q protein was spotted at a volume of 2 μl (400 ng) per spot onto a nitrocellulose membrane of a size of 5 mm by 15 mm (Hybond C; Amersham), which was then air-dried at room temperature for about one hour. The nitrocellulose membrane was soaked in TBS, incubated for 5 minutes, and blocked at room temperature for one hour using TBS (20 mM Tris-HCl, pH 7.5, 150 mM NaCl) containing 5% of a blocking agent (Amersham ECL blocking reagent; GE Healthcare). […]

[5] = tail vein administration, 10 mg/kg

dSdKdVdPGdLdYdYdF ([dS][dK][dV][dP]G[dL][dY][dY][dF]) [R19]
arthritis-suppressing effect (clinical score) compared with methotrexate [1]: arthritis-suppressing effect comparable to or greater than that of methotrexate | suppression (decrease of dye leakage) compared to negative control ([2]; intraperitoneal administration, 100 mg/kg): 50% | suppression effect (dye leakage) compared to negative control ([2]; intraperitoneal administration, 10 or 100 mg/kg): suppressed | suppression (decrease of dye leakage) compared to negative control [2, 5]: about 50% | suppression effect (dye leakage) compared to negative control [2, 5]: suppressed

dYdPdYGdFdL [scramble peptide, reference compound]
suppression effect (clinical score) ([3]; negative control peptide, once a day, 25 consecutive days): did not exhibit any suppression effects

CKAPGLYYF (Immunoglobulin binding peptide) [R10]
inhibition of the binding between C1q and immunoglobulin [4]: inhibit the binding

STAKFTCKVPGLYYF (Immunoglobulin binding peptide) [R11]
inhibition of the binding between C1q and immunoglobulin [4]: inhibit the binding

CC(C)C[C@@H](NC(=O)CNC(=O)[C@H]1CCCN1)C(=O)N[C@H](Cc1ccc(O)cc1)C(=O)N[C@H](Cc1ccc(O)cc1)C(=O)N[C@H](Cc1ccccc1)C(=O)O [R13, dPGdLdYdYdF] (H-[dP]G[dL][dY][dY][dF]-OH)
abnormalities in general condition and effects on body weight ([3]; 100 and 10 mg/kg): abnormalities in general condition and effects on body weight were not observed
